Results on four compounds are retold here after article PMC10187093, “Synthesis, in silico modelling, and in vitro biological evaluation of substituted pyrazole derivatives as potential anti-skin cancer, anti-tyrosinase, and antioxidant agents” (Journal of Enzyme Inhibition and Medicinal Chemistry, 2023).

One test relates to GFP-A431. The test is described as follows: MTT antiproliferative/cytotoxicity assay, A431. It counts as cell-based, human. The settings on record: for IC50: Homo sapiens, non-melanoma, MTT, 48 h, read-out: IC50 GFP-A431; for selectivity index (SI) A431: IC50 HaCaT divided by IC50 A431. The protocol: (§1) Human-derived GFP-expressing melanoma A375 and epidermoid carcinoma A431 cell lines were purchased from Angio-Proteomie (Boston, MA). Human melanoma carcinoma SK-MEL-28 and human immortalised keratinocytes (HaCaT) cell lines were acquired from American Type Culture Collection (ATCC; Manassas, VA). […] The growth media of incubated cells were changed every 2–3 days until they attained 70–80% confluence, after which they were sub-cultured for experiments and re-passaging. DMSO was used as the vehicle to prepare a 10 mM stock solution of the test compounds.
(§2) Stock solutions (10 mM) were prepared by dissolving each compound to be screened in DMSO.

The next test has as its system SK-MEL-28. The test is described as follows: MTT antiproliferative/cytotoxicity assay, SK-MEL-28. The settings on record: Homo sapiens, melanoma, MTT, 48 h, read-out: IC50 SKMEL-28. Type of test: cell-based, human. The protocol: (§3) Human-derived GFP-expressing melanoma A375 and epidermoid carcinoma A431 cell lines were purchased from Angio-Proteomie (Boston, MA). Human melanoma carcinoma SK-MEL-28 and human immortalised keratinocytes (HaCaT) cell lines were acquired from American Type Culture Collection (ATCC; Manassas, VA). Human cutaneous SCC cell line SCC-12[192] was generously provided by Dr. James G. Rheinwald to Dr. Tatiana Efimova. Except SK-MEL-28, which was cultured in an RPMI-1640 medium supplemented with 5% FBS, all other human immortalised cell lines were grown and maintained in DMEM containing varying percentages of FBS; 5% FBS for A431, SCC-12, and HaCaT lines, and 10% FBS for A375. All culture media were routinely supplemented with 1% PEST 100X (100 U/mL penicillin, 100 μg/mL streptomycin), and cells were cultured in incubators maintained at 37 °C under an atmosphere of 95% humidity, 20% O2, and 5% CO2. The growth media of incubated cells were changed every 2–3 days until they attained 70–80% confluence, after which they were sub-cultured for experiments and re-passaging. DMSO was used as the vehicle to prepare a 10 mM stock solution of the test compounds.
(§4) Stock solutions (10 mM) were prepared by dissolving each compound to be screened in DMSO. From these stock solutions, escalating concentrations were prepared using the corresponding cell growth media as a diluent, and the cells (65–75% confluent) were treated with (0–40 µM) or without the drug in sext- to octuplicate and incubated for 48 h. All treatment protocols and controls were prepared as previously described.
(§5) The potency and cytotoxicity of the test compounds against two cutaneous melanoma (A375 and SK-MEL-28) and two non-melanoma (A431 and SCC-12) SC cell lines in addition to a control immortalised normal human epidermal keratinocytes (HaCaT) cell line were assessed by MTT assay as previously described.

A further test has as its target T1, mushroom tyrosinase (Agaricus bisporus, UniProt C7FF04).
T1 construct: purchased Sigma-Aldrich Chemical Company (St. Louis, MO) and MP Biomedicals (Irvine, CA)
The test is described as follows: In vitro mushroom tyrosinase inhibition assay. It counts as biochemical. The protocol: The anti-tyrosinase potential of all the synthesised derivatives was determined by an enzymatic tyrosinase inhibition assay based on their ability to inhibit the substrate, L-tyrosine, from binding to the tyrosinase enzyme. […] Test samples were dissolved in DMSO at a concentration of 10 mM and then diluted to different concentrations with phosphate buffer (0.1 M, pH 6.8). Each well contained 40 µL of the sample with 80 µL of phosphate buffer solution (0.1 M, pH 6.8), 40 µL of tyrosinase enzyme (100 units/mL), and 40 µL L-tyrosine (2.5 mM). The mixture was incubated for 30 min at room temperature, and absorbance was measured at 490 nm. Each sample was accompanied by a sample blank containing all components except tyrosinase. […] The percentage of tyrosinase inhibition was calculated as follows: ((ΔAcontrol – ΔAsample)/ΔAcontrol) × 100. IC50 values denoted the sample concentration required to inhibit 50% tyrosinase activity (Table S1).

The nature of test [1]: DPPH free radical scavenging assay. The settings on record: for Percent Scavenging (DPPH): 1 mM; for IC50: N.A. = No Activity, > 1000 = not biologically relevant, read-out: IC50 Value, DPPH antioxidant activity (Table S4). The procedure:
An initial screen was done of all 25 derivatives at a concentration of 1 mM. […] Methanol was used as the diluent, and 100 µL of DPPH (200 µM; Sigma-Aldrich, St. Louis, MO) was added to each well. […] The scavenging capacity (SC) was calculated as SC% = ((ΔAcontrol – ΔAsample)/ΔAcontrol) × 100%, where ΔAcontrol was the absorbance of the reagent blank, and ΔAsample was the absorbance of the test samples. The control contained all reagents except the compounds, and all tests were performed in triplicate. Quercetin served as a positive control. The DPPH methanolic solution (1 mL) mixed with DMSO (5 µL) served as a negative control.
(DPPH is a stable violet radical that fades when it is reduced.)

Another test relates to A375. The test is described as follows: MTT antiproliferative/cytotoxicity assay, A375. Type of test: cell-based, human. The settings on record: Homo sapiens, A-375, 48 h, melanoma, MTT, 48 h; read-out: IC50 A375. The procedure: as §3, §4, §5
The test system of the next test is HaCaT. The test is described as follows: MTT cytotoxicity assay, noncancerous HaCaT keratinocytes. The settings on record: Homo sapiens, HaCaT; control noncancerous keratinocytes, MTT, 48 h; read-out: IC50 HaCaT. It counts as cell-based, human. The procedure:
as §3, §4, §5

Another test deals with SCC-12. The test is described as follows: MTT antiproliferative/cytotoxicity assay, SCC-12. It counts as cell-based, human. The settings on record: for IC50: Homo sapiens, non-melanoma, MTT, 48 h, read-out: IC50 SCC-12; for selectivity index (SI) SCC-12: IC50 HaCaT divided by IC50 SCC-12. The procedure:
as §1, §2

[2] abbreviates: 500 µM, single-concentration screen, read-out: % Inhibition of tyrosinase.
Setting [3] is: > 500 = not biologically relevant, read-out: IC50 Value, mushroom tyrosinase inhibition (Table S1).

Read-outs that look alike come from different tables or passages of the source.

T1 sequence (C7FF04 1-392 limits assumed): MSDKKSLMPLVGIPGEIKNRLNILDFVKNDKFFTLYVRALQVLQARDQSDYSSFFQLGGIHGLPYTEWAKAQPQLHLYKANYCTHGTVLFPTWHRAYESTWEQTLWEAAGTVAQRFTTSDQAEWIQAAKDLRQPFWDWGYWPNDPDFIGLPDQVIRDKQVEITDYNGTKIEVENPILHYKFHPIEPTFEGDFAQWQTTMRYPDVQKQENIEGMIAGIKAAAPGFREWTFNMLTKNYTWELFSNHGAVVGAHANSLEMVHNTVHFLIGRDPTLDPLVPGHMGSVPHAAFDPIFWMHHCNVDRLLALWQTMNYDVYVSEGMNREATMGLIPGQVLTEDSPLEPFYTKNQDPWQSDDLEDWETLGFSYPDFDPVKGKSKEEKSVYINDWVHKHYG

For orientation: IC50 means the concentration needed to halve the response being measured. In the case of `Cc1cc(-c2ccccc2)n(-c2ccccc2)n1` [P14, 3-Methyl-1,5-diphenyl-1H-pyrazole], the IC50 in the test with GFP-A431 (A-431, 48 h) is 17.8 ± 0.5 µM; with SK-MEL-28 (SK-MEL-28, 48 h), 33.3 ± 1.7 µM; on mushroom tyrosinase (L-tyrosine substrate, read-out: IC50 tyrosinase inhibition), 15.9 µM; in the test on A375, 25.8 ± 2.7 µM; in the test on HaCaT, 35.1 ± 2.8 µM; with SCC-12 (SCC12, 48 h), 42.5 ± 2.8 µM. Also, the “selectivity index (SI) A431” value in the test on GFP-A431 is 2.0. Also, the inhibition at 500 µM at mushroom tyrosinase (setting [2]) worked out at 97.4 ± 0.2%. Further, in test [1], the “DPPH antioxidant activity (in words)” value was “inactive”. Moreover, the “Percent Scavenging (DPPH)” value in test [1] is -23.93%. Also, the “selectivity index (SI) SCC-12” value with SCC-12 is on record as 0.8.

`O=C1CC(c2ccccc2)=NN1c1ccccc1` [P21]: the IC50 was 58.6 ± 2.3 µM in the test with GFP-A431 (A-431); 42.7 ± 4 µM in the test with SK-MEL-28 (SK-MEL-28); 295 µM on mushroom tyrosinase (IC50 Value, mushroom tyrosinase inhibition (Table S1), > 500 = not biologically relevant); 354 µM in test [1]; 67.8 ± 2.3 µM in the test on A375; 50.1 ± 6.5 µM in the test with HaCaT. Besides, the IC50 in the test with SCC-12 (SCC12) amounted to 37.8 ± 3.2 µM. For the same compound, the inhibition at 500 µM at mushroom tyrosinase (read-out: % Inhibition of tyrosinase, 500 µM, single-concentration screen) amounted to 88.9 ± 0.4%. Moreover, in test [1], the “Percent Scavenging (DPPH)” value is recorded as 73.25%.

As to `Cc1c2c(nn1-c1ccccc1)-c1ccccc1CC2` [P9, 3-Methyl-2-phenyl-4,5-dihydro-2H-benzo[g]indazole], the IC50 in the test on GFP-A431 (A-431, 48 h) is 28 ± 3.6 µM; in the test on SK-MEL-28 (SK-MEL-28, 48 h), 40.8 ± 1 µM; on mushroom tyrosinase (setting [3]) it was above 500 µM; in test [1], above 1000 µM; in the test on A375, 45.2 ± 2 µM; with HaCaT, 43.6 ± 1.4 µM. Also, in the test with SCC-12 (SCC12, 48 h), the IC50 was determined as 28.8 ± 1.4 µM. The “selectivity index (SI) A431” value in the test with GFP-A431 turned out to be 1.6. Also, the inhibition at 500 µM at mushroom tyrosinase (setting [2]) turned out to be 9.49%. For the same compound, the “Percent Scavenging (DPPH)” value in test [1] was found to be 5.48%. The “selectivity index (SI) SCC-12” value in the test on SCC-12 is given as 1.5.

Consider `Cc1cc(-c2ccccc2)n(-c2ccc(Br)cc2)n1` [P16, 1-(4-Bromophenyl)-3-methyl-5-phenyl-1H-pyrazole], for which the IC50 in the test with GFP-A431 (A-431, 48 h) is 21 ± 1.3 µM; in the test on SK-MEL-28 (SK-MEL-28, 48 h) it was 39.1 ± 2.3 µM; at mushroom tyrosinase (setting [3]) it was above 500 µM; with A375, 46 ± 1 µM; with HaCaT, 54.2 ± 3.6 µM; with SCC-12 (SCC12, 48 h), 19.6 ± 2 µM. For the same compound, the “selectivity index (SI) A431” value with GFP-A431 was found to be 2.6. Besides, the inhibition at 500 µM on mushroom tyrosinase (setting [2]) came to 17.3%. In addition, the “Percent Scavenging (DPPH)” value in test [1] was -24.61%. The “selectivity index (SI) SCC-12” value in the test on SCC-12 came out at 2.8.
